Converted amounts (≈) assume the structure as drawn.
Tests used:
[1] = tested on: Mycobacterium tuberculosis; test: Antimycobacterial activity against isoniazid-resistant Mycobacterium tuberculosis by two fold agar dilution method; type: functional
[2] = tested on: Mycobacterium tuberculosis; test: Ratio of MIC for isoniazid-resistant Mycobacterium tuberculosis to MIC for Mycobacterium tuberculosis H37Rv; type: functional

Structure (SMILES)	MIC [1]	Ratio [2]
Cc1c(NCc2nnc(Nc3ccc(F)c(Cl)c3)o2)c(=O)n(-c2ccccc2)n1C	10 µg/mL (≈ 23.3 µM)	
Cc1c(Cl)cccc1Nc1nnc(CNc2c(C)n(C)n(-c3ccccc3)c2=O)o1	> 12.5 µg/mL	
Cc1c(NCc2nnc(Nc3ccc([N+](=O)[O-])cc3)o2)c(=O)n(-c2ccccc2)n1C	6.25 µg/mL (≈ 14.8 µM)	
Cc1c(NCc2nnc(Nc3ccc(Cl)cc3)o2)c(=O)n(-c2ccccc2)n1C	10 µg/mL (≈ 24.3 µM)	
Cc1c(NCc2nnc(Nc3ccc(Br)cc3)o2)c(=O)n(-c2ccccc2)n1C	12.5 µg/mL (≈ 27.5 µM)	
COc1ccc(Nc2nnc(CNc3c(C)n(C)n(-c4ccccc4)c3=O)o2)cc1	> 12.5 µg/mL	
Cc1ccc(Nc2nnc(CNc3c(C)n(C)n(-c4ccccc4)c3=O)o2)c(C)c1	> 12.5 µg/mL	
Cc1c(NCc2nnc(Nc3ccc(F)cc3)o2)c(=O)n(-c2ccccc2)n1C	3.12 µg/mL (≈ 7.91 µM)	4
Cc1c(NCc2nnc(Nc3ccc(S(N)(=O)=O)cc3)o2)c(=O)n(-c2ccccc2)n1C	12.5 µg/mL (≈ 27.4 µM)	
Cc1c(NCc2nnc(Nc3ccccc3)o2)c(=O)n(-c2ccccc2)n1C	> 12.5 µg/mL	
NNC(=O)c1ccncc1 [ISONIAZID]	12.5 µg/mL (≈ 91.1 µM)	
Cc1c(NCc2nnc(Nc3ccccc3Cl)o2)c(=O)n(-c2ccccc2)n1C	> 12.5 µg/mL	
Cc1c(NCc2nnc(Nc3ccc(O)cc3)o2)c(=O)n(-c2ccccc2)n1C	12.5 µg/mL (≈ 31.9 µM)	
Cc1ccc(Nc2nnc(CNc3c(C)n(C)n(-c4ccccc4)c3=O)o2)cc1	> 12.5 µg/mL	
Cc1cccc(C)c1Nc1nnc(CNc2c(C)n(C)n(-c3ccccc3)c2=O)o1	> 12.5 µg/mL	

Reference: ChEMBL document CHEMBL1938310, “Discovery of novel antitubercular 1,5-dimethyl-2-phenyl-4-([5-(arylamino)-1,3,4-oxadiazol-2-yl]methylamino)-1,2-dihydro-3H-pyrazol-3-one analogues” (Bioorg Med Chem Lett, 2012)
